From patent US8455658B2, “Thiazole and thiadiazole compounds for inflammation and immune-related uses” (Synta Pharmaceuticals Corp., priority 2006, dated 2013)

Tested on: IL-2 production
Assay: Inhibition of IL-2 production in PHA-activated Jurkat cells (ELISA)
Assay type: cell-based
Details: Homo sapiens, Jurkat, 20 h, PHA 2.5 μg/mL, IL-2 ELISA
Method: Jurkat cells were placed in a 96 well plate (0.5 million cells per well in 1% FBS medium) then a test compound of this invention was added at different concentrations. After 10 minutes, the cells were activated with PHA (final concentration 2.5 μg/mL) and incubated for 20 hours at 37° C. under CO2. The final volume was 200 μL. Following incubation, the cells were centrifuged and the supernatants collected and stored at −70° C. prior to assaying for IL-2 production. A commercial ELISA kit (IL-2 Eli-pair, Diaclone Research, Besancon, France) was used to detect production of IL-2, from which dose response curves were obtained.

| IC50 | SMILES |
| --- | --- |
| > 1000 nM | Cc1nnsc1C(=O)Nc1nc(C)c(-c2cccc(C(F)(F)F)c2)s1 [Compound 12, 4-Methyl-[1,2,3]thiadiazole-5-carboxylic acid [4-methyl-5-(3-trifluoromethyl-phenyl)-thiazol-2-yl]-amide] |
| > 1000 nM | C=CCOc1ccc(C(F)(F)F)cc1-c1cnc(NC(=O)c2c(F)cccc2F)s1 [Compound 65, N-(5-(2-(Allyloxy)-5-(trifluoromethyl)phenyl)thiazol-2-yl)-2,6-difluorobenzamide] |
| > 1000 nM | Cn1nnc(-c2cccc(-c3cnc(NC(=O)c4c(F)cccc4F)s3)c2)n1 [Compound 7, 2,6-Difluoro-N-{5-[3-(2-methyl-2H-tetrazol-5-yl)-phenyl]-thiazol-2-yl}-benzamide] |
| > 1000 nM | COc1ccc(-c2nc(NC(=O)c3c(F)cccc3F)sc2-c2cccc(C(F)(F)F)c2)cc1OC [Compound 109, N-(4-(3,4-Dimethoxyphenyl)-5-(3-(trifluoromethyl)phenyl)thiazol-2-yl)-2,6-difluorobenzamide] |
| > 1000 nM | N#Cc1cccc(-c2cnc(NC(=O)c3c(F)cccc3F)s2)c1 [Compound 6, N-[5-(3-Cyano-phenyl)-thiazol-2-yl]-2,6-difluoro-benzamide] |
| 100 to 200 nM | Cc1ccc(-c2ncco2)cc1-c1ncc(C(=O)Nc2c(F)cccc2F)s1 [Compound 121, N-(2,6-difluorophenyl)-2-(2-methyl-5-(oxazol-2-yl)phenyl)thiazole-5-carboxamide] |
| > 1000 nM | O=Cc1nc(NC(=O)c2c(F)cccc2F)sc1-c1cccc(C(F)(F)F)c1 [Compound 67, 2,6-Difluoro-N-(4-formyl-5-(3-(trifluoromethyl)phenyl)thiazol-2-yl)benzamide] |
| > 1000 nM | COc1ccc(OC)c(-c2csc(NC(=O)c3c(F)cccc3F)n2)c1 [Compound 2, N-[4-(2,5-Dimethoxy-phenyl)-thiazol-2-yl]-2,6-difluoro-benzamide] |
| > 1000 nM | Cn1cncc1-c1nc(NC(=O)c2c(F)cccc2F)sc1-c1cccc(C(F)(F)F)c1 [Compound 80, 2,6-Difluoro-N-(4-(1-methyl-1H-imidazol-5-yl)-5-(3-(trifluoromethyl)phenyl)thiazol-2-yl)benzamide] |
| > 1000 nM | CCOC(=O)c1nc(-c2sc(NC(=O)c3c(F)cccc3F)nc2C)cs1 [Compound 114a, Ethyl 2′-(2,6-difluorobenzamido)-4′-methyl-4,5′-bithiazole-2-carboxylate] |
| 50 to 100 nM | C=C(C)c1nc(NC(=O)c2c(F)cccc2F)sc1-c1cccc(C(F)(F)F)c1 [Compound 68a, 2,6-difluoro-N-(4-(prop-1-en-2-yl)-5-(3-(trifluoromethyl)phenyl)thiazol-2-yl)benzamide] |
| > 1000 nM | Cc1nc(C)c(-c2nc(NC(=O)c3c(F)cccc3F)sc2-c2cccc(C(F)(F)F)c2)o1 [Compound 81, N-(4-(2,4-dimethyloxazol-5-yl)-5-(3-(trifluoromethyl)phenyl)thiazol-2-yl)-2,6-difluorobenzamide] |
| 200 to 500 nM | C=Cc1nc(NC(=O)c2c(F)cccc2F)sc1-c1cccc(C(F)(F)F)c1 [Compound 75, 2,6-Difluoro-N-(5-(3-(trifluoromethyl)phenyl)-4-vinylthiazol-2-yl)benzamide] |
| 50 to 100 nM | O=C(Nc1ncc(-c2cc(C(F)(F)F)ccc2Cl)s1)c1c(F)cccc1F [Compound 4, N-[5-(2-Chloro-5-trifluoromethyl-phenyl)-thiazol-2-yl]-2,6-difluoro-benzamide] |
| 200 to 500 nM | Cc1nc(NC(=O)c2c(F)cccc2F)sc1-c1cc(C#N)c2c(c1)OCO2 [Compound 58, N-(5-(7-Cyanobenzo[d][1,3]dioxol-5-yl)-4-methylthiazol-2-yl)-2,6-difluorobenzamide] |
| 200 to 500 nM | Cc1nc(NC(=O)c2cccnc2F)sc1-c1cccc(C(F)(F)F)c1 [Compound 50, 2-Fluoro-N-(4-methyl-5-(3-(trifluoromethyl)phenyl)thiazol-2-yl)nicotinamide] |
| > 1000 nM | C=CCOc1ccc(C(F)(F)F)cc1-c1sc(NC(=O)c2c(F)cccc2F)nc1C(=C)C [Compound 64, N-(5-(2-(Allyloxy)-5-(trifluoromethyl)phenyl)-4-(prop-1-en-2-yl)thiazol-2-yl)-2,6-difluorobenzamide] |
| 50 to 100 nM | O=C(Nc1c(F)cccc1F)c1ncc(-c2cccc(-c3ncco3)c2)s1 [Compound 131, N-(2,6-difluorophenyl)-5-(3-(oxazol-2-yl)phenyl)thiazole-2-carboxamide] |
| > 1000 nM | O=C(Nc1c(F)cccc1F)c1cnc(-c2cccc(C(F)(F)F)c2)s1 [Compound 123, N-(2,6-difluorophenyl)-2-(3-(trifluoromethyl)phenyl)thiazole-5-carboxamide] |
| > 1000 nM | Nc1nc(-c2nc(NC(=O)c3c(F)cccc3F)sc2-c2cccc(C(F)(F)F)c2)cs1 [Compound 87, N-(2′-amino-5-(3-(trifluoromethyl)phenyl)-4,4′-bithiazol-2-yl)-2,6-difluorobenzamide] |
| 50 to 100 nM | Cc1nc(C(=O)Nc2c(F)cccc2F)sc1-c1cccc(-c2ncco2)c1 [Compound 116, N-(2,6-difluorophenyl)-4-methyl-5-(3-(oxazol-2-yl)phenyl)thiazole-2-carboxamide] |
| > 1000 nM | Cc1cnccc1NC(=O)c1ncc(-c2cc(-c3ncco3)ccc2C)s1 [Compound 132, 5-(2-methyl-5-(oxazol-2-yl)phenyl)-N-(3-methylpyridin-4-yl)thiazole-2-carboxamide] |
| > 1000 nM | O=C(Nc1nnc(-c2cc(C(F)(F)F)ccc2Cl)s1)c1c(F)cccc1F [Compound 44, N-[5-(2-Chloro-5-trifluoromethyl-phenyl)-[1,3,4]thiadiazol-2-yl]-2,6-difluoro-benzamide] |
| 50 to 100 nM | O=C(Nc1nc(-c2cnco2)c(-c2cccc(C(F)(F)F)c2)s1)c1c(F)cccc1F [Compound 76, 2,6-Difluoro-N-(4-(oxazol-5-yl)-5-(3-(trifluoromethyl)phenyl)thiazol-2-yl)benzamide] |
| 200 to 500 nM | N#Cc1nc(NC(=O)c2c(F)cccc2F)sc1-c1cccc(C(F)(F)F)c1 [Compound 73, N-(4-Cyano-5-(3-(trifluoromethyl)phenyl)thiazol-2-yl)-2,6-difluorobenzamide] |
| 200 to 500 nM | CC(=O)c1nc(NC(=O)c2c(F)cccc2F)sc1-c1cccc(C(F)(F)F)c1 [Compound 84, N-(4-Acetyl-5-(3-(trifluoromethyl)phenyl)thiazol-2-yl)-2,6-difluorobenzamide] |
| > 1000 nM | Cc1nc(NC(=O)c2ccncc2F)sc1-c1cccc(C(F)(F)F)c1 [Compound 10, 3-Fluoro-N-[4-methyl-5-(3-trifluoromethyl-phenyl)-thiazol-2-yl]-isonicotinamide] |
| > 1000 nM | COc1ncc(Cl)cc1-c1ncc(C(=O)Nc2c(F)cccc2F)s1 [Compound 126, 2-(5-chloro-2-methoxypyridin-3-yl)-N-(2,6-difluorophenyl)thiazole-5-carboxamide] |
| > 1000 nM | Cc1ncccc1C(=O)Nc1nc(C)c(-c2cccc(C(F)(F)F)c2)s1 [Compound 51, 2-Methyl-N-(4-methyl-5-(3-(trifluoromethyl)phenyl)thiazol-2-yl)nicotinamide] |
| > 1000 nM | Cc1nc(-c2nc(NC(=O)c3c(F)cccc3F)sc2-c2cccc(C(F)(F)F)c2)c(C)s1 [Compound 95, N-(2′,5′-dimethyl-5-(3-(trifluoromethyl)phenyl)-4,4′-bithiazol-2-yl)-2,6-difluorobenzamide] |
